Results as given in PubChem BioAssay AID1259407 (Chemical Carcinogenesis Research Information System (CCRIS), 2018).
Calls of active or inactive are those of the source. The rule behind the calls is not given here.

System: CCRIS mutagenicity, Ames/micronucleus/aberration tests
Test: CCRIS mutagenicity studies
[1] = Test System: AMES SALMONELLA TYPHIMURIUM, Strain/Indicator: TA98, Metabolic Activation: NONE, Method: PREINCUBATION
[2] = Test System: AMES SALMONELLA TYPHIMURIUM, Strain/Indicator: TA98, Metabolic Activation: NONE, Method: STANDARD PLATE
[3] = Test System: AMES SALMONELLA TYPHIMURIUM, Strain/Indicator: TA100, Metabolic Activation: NONE, Method: PREINCUBATION
[4] = Test System: AMES SALMONELLA TYPHIMURIUM, Strain/Indicator: TA100, Metabolic Activation: NONE, Method: STANDARD PLATE
[5] = Test System: AMES SALMONELLA TYPHIMURIUM, Strain/Indicator: TA1535, Metabolic Activation: NONE, Method: PREINCUBATION
[6] = Test System: AMES SALMONELLA TYPHIMURIUM, Strain/Indicator: TA1535, Metabolic Activation: NONE, Method: STANDARD PLATE
[7] = Test System: AMES SALMONELLA TYPHIMURIUM, Strain/Indicator: TA1537, Metabolic Activation: NONE, Method: PREINCUBATION
[8] = Test System: AMES SALMONELLA TYPHIMURIUM, Strain/Indicator: TA1537, Metabolic Activation: NONE, Method: STANDARD PLATE
[9] = Test System: AMES SALMONELLA TYPHIMURIUM, Strain/Indicator: TA98, Metabolic Activation: S-9, Method: STANDARD PLATE
[10] = Test System: AMES SALMONELLA TYPHIMURIUM, Strain/Indicator: TA100, Metabolic Activation: S-9, Method: STANDARD PLATE
[11] = Test System: AMES SALMONELLA TYPHIMURIUM, Strain/Indicator: TA1537, Metabolic Activation: S-9, Method: STANDARD PLATE

## NCCNCCNCCN
Test System: AMES SALMONELLA TYPHIMURIUM, Strain/Indicator: TA98, Metabolic Activation: HAMSTER, LIVER, S-9, AROCLOR 1254 (10%), Method: PREINCUBATION
  mutagenic call: active; positive
[1]
  mutagenic call: active; positive
[2]
  mutagenic call: active; positive
Test System: AMES SALMONELLA TYPHIMURIUM, Strain/Indicator: TA98, Metabolic Activation: RAT, LIVER, S-9, AROCLOR 1254 (10%), Method: PREINCUBATION
  mutagenic call: active; positive
Test System: AMES SALMONELLA TYPHIMURIUM, Strain/Indicator: TA98, Metabolic Activation: RAT, LIVER, S-9, PCB, Method: PREINCUBATION
  mutagenic call: active; positive
Test System: AMES SALMONELLA TYPHIMURIUM, Strain/Indicator: TA100, Metabolic Activation: HAMSTER, LIVER, S-9, AROCLOR 1254 (10%), Method: PREINCUBATION
  mutagenic call: active; positive
[3]
  mutagenic call: active; positive
[4]
  mutagenic call: active; positive
Test System: AMES SALMONELLA TYPHIMURIUM, Strain/Indicator: TA100, Metabolic Activation: RAT, LIVER, S-9, AROCLOR 1254 (10%), Method: PREINCUBATION
  mutagenic call: active; positive
Test System: AMES SALMONELLA TYPHIMURIUM, Strain/Indicator: TA100, Metabolic Activation: RAT, LIVER, S-9, PCB, Method: PREINCUBATION
  mutagenic call: active; positive
Test System: AMES SALMONELLA TYPHIMURIUM, Strain/Indicator: TA1535, Metabolic Activation: HAMSTER, LIVER, S-9, AROCLOR 1254 (10%), Method: PREINCUBATION
  mutagenic call: active; positive
[5]
  mutagenic call: active; positive
[6]
  mutagenic call: inactive; negative
Test System: AMES SALMONELLA TYPHIMURIUM, Strain/Indicator: TA1535, Metabolic Activation: RAT, LIVER, S-9, AROCLOR 1254 (10%), Method: PREINCUBATION
  mutagenic call: active; positive
Test System: AMES SALMONELLA TYPHIMURIUM, Strain/Indicator: TA1535, Metabolic Activation: RAT, LIVER, S-9, AROCLOR 1254, Method: STANDARD PLATE
  mutagenic call: active; positive
Test System: AMES SALMONELLA TYPHIMURIUM, Strain/Indicator: TA1537, Metabolic Activation: HAMSTER, LIVER, S-9, AROCLOR 1254 (10%), Method: PREINCUBATION
  mutagenic call: active; positive
[7]
  mutagenic call: active; positive
[8]
  mutagenic call: active; positive
Test System: AMES SALMONELLA TYPHIMURIUM, Strain/Indicator: TA1537, Metabolic Activation: RAT, LIVER, S-9, AROCLOR 1254 (10%), Method: PREINCUBATION
  mutagenic call: active; positive
Test System: AMES SALMONELLA TYPHIMURIUM, Strain/Indicator: TA1537, Metabolic Activation: RAT, LIVER, S-9, AROCLOR 1254, Method: STANDARD PLATE
  mutagenic call: inactive; negative
Test System: AMES SALMONELLA TYPHIMURIUM, Strain/Indicator: TA1538, Metabolic Activation: NONE, Method: STANDARD PLATE
  mutagenic call: active; positive
Test System: AMES SALMONELLA TYPHIMURIUM, Strain/Indicator: TA1538, Metabolic Activation: RAT, LIVER, S-9, AROCLOR 1254, Method: STANDARD PLATE
  mutagenic call: inactive; negative
Test System: CHINESE HAMSTER OVARY, Strain/Indicator: CHO (HGPRT)/6-THIOGUANINE, Metabolic Activation: NONE
  mutagenic call: inactive; negative
Test System: CHINESE HAMSTER OVARY, Strain/Indicator: CHO (HGPRT)/6-THIOGUANINE, Metabolic Activation: RAT, LIVER, S-9, AROCLOR 1254
  mutagenic call: inactive; negative
Test System: UDS RAT HEPATOCYTES, Strain/Indicator: THY INCORP, Metabolic Activation: NONE, Method: SCINTILLATION SPECTROMETRY
  mutagenic call: active; positive

## Cc1c(C)c2c(N)c3ccccc3nc2c2ccccc12
Test System: AMES SALMONELLA TYPHIMURIUM, Strain/Indicator: TA97, Metabolic Activation: NONE, Method: PREINCUBATION
  mutagenic call: active; positive
Test System: AMES SALMONELLA TYPHIMURIUM, Strain/Indicator: TA97, Metabolic Activation: NONE, Method: STANDARD PLATE
  mutagenic call: active; positive
[1]
  mutagenic call: active; positive
[7]
  mutagenic call: inactive; negative
[8]
  mutagenic call: active; positive

## N=c1ccn2c(n1)O[C@H]1[C@H](O)[C@@H](CO)O[C@H]12
[9]
  mutagenic call: inactive; negative
[10]
  mutagenic call: inactive; negative
[11]
  mutagenic call: inactive; negative
Test System: E. COLI, Strain/Indicator: WP2 (HCR), Metabolic Activation: S-9, Method: STANDARD PLATE
  mutagenic call: inactive; negative

## CCCNNCCC
Test System: AMES SALMONELLA TYPHIMURIUM, Strain/Indicator: TA100, Metabolic Activation: NONE, Method: PREINCUBATION (11 HR GROWTH PERIOD FOR BACTERIA)
  mutagenic call: active; positive
Test System: AMES SALMONELLA TYPHIMURIUM, Strain/Indicator: TA100, Metabolic Activation: RAT, LIVER, S-9, PCB, Method: PREINCUBATION (11 HR GROWTH PERIOD FOR BACTERIA)
  mutagenic call: inactive; negative
Test System: AMES SALMONELLA TYPHIMURIUM, Strain/Indicator: TA102, Metabolic Activation: NONE, Method: PREINCUBATION (5 OR 7 HR GROWTH PERIOD FOR BACTERIA)
  mutagenic call: active; positive
Test System: AMES SALMONELLA TYPHIMURIUM, Strain/Indicator: TA102, Metabolic Activation: RAT, LIVER, S-9, PCB, Method: PREINCUBATION (5 OR 7 HR GROWTH PERIOD FOR BACTERIA)
  mutagenic call: active; positive

## ClCc1cc2cccc3ccc4c5ccccc5cc1c4c32
[2]
  mutagenic call: active; positive
[4]
  mutagenic call: active; positive

## CCOC(=O)N(N=O)C(CCC=O)c1cccnc1 (configuration not stated)
[3]
  mutagenic call: active; positive

## CCN(C(=O)CCCCl)c1snc2ccccc12
[2]
  mutagenic call: inactive; negative
[9]
  mutagenic call: inactive; negative
[4]
  mutagenic call: inactive; negative
[10]
  mutagenic call: inactive; negative
[6]
  mutagenic call: inactive; negative
Test System: AMES SALMONELLA TYPHIMURIUM, Strain/Indicator: TA1535, Metabolic Activation: S-9, Method: STANDARD PLATE
  mutagenic call: inactive; negative
[8]
  mutagenic call: inactive; negative
[11]
  mutagenic call: inactive; negative

## C=CC(=O)OCCOC1CC2CC1C1CC=CC21 (configuration not stated)
Test System: MOUSE LYMPHOMA, Strain/Indicator: L5178Y (TK+/TK-), Metabolic Activation: NONE, Method: SUSPENSION/PLATE
  mutagenic call: active; positive

## COC(C)CCO (configuration not stated)
[1]
  mutagenic call: inactive; negative
Test System: AMES SALMONELLA TYPHIMURIUM, Strain/Indicator: TA98, Metabolic Activation: RAT LIVER S-9, PHENOBARBITAL AND BETA-NAPHTHOFLAVONE, Method: PREINCUBATION
  mutagenic call: inactive; negative
[3]
  mutagenic call: inactive; negative
Test System: AMES SALMONELLA TYPHIMURIUM, Strain/Indicator: TA100, Metabolic Activation: RAT LIVER S-9, PHENOBARBITAL AND BETA-NAPHTHOFLAVONE, Method: PREINCUBATION
  mutagenic call: inactive; negative
[5]
  mutagenic call: inactive; negative
Test System: AMES SALMONELLA TYPHIMURIUM, Strain/Indicator: TA1535, Metabolic Activation: RAT LIVER S-9, PHENOBARBITAL AND BETA-NAPHTHOFLAVONE, Method: PREINCUBATION
  mutagenic call: inactive; negative
[7]
  mutagenic call: inactive; negative
Test System: AMES SALMONELLA TYPHIMURIUM, Strain/Indicator: TA1537, Metabolic Activation: RAT LIVER S-9, PHENOBARBITAL AND BETA-NAPHTHOFLAVONE, Method: PREINCUBATION
  mutagenic call: inactive; negative
Test System: E.COLI, Strain/Indicator: WP2UVRA/PKM101, Metabolic Activation: NONE, Method: PREINCUBATION
  mutagenic call: inactive; negative
Test System: E.COLI, Strain/Indicator: WP2UVRA/PKM101, Metabolic Activation: RAT LIVER S-9, PHENOBARBITAL AND BETA-NAPHTHOFLAVONE, Method: PREINCUBATION
  mutagenic call: inactive; negative

## O=CN(O)c1ccc(Oc2ccc(Cl)cc2)cc1
[4]
  mutagenic call: inactive; negative
Test System: AMES SALMONELLA TYPHIMURIUM, Strain/Indicator: TA100, Metabolic Activation: RAT, LIVER, S-9, KANECLOR 500, Method: STANDARD PLATE
  mutagenic call: active; positive
